Laboratory results reported in patent publication US6506766B1 (Abbott Laboratories, priority 1998, dated 2003).
Where two headings read alike, the source gives them in different places.

Legend:
[1] = molecular target: T1, human progesterone receptor-A [PRA] isoform (Homo sapiens, UniProt P06401); assay: Radioligand binding with human progesterone receptor cytosol ([3H]-progesterone competition)
T1 construct: host or cells: insect SF21 cells (baculovirus)
T1 sequence (P06401 1-769 isoform P06401-2): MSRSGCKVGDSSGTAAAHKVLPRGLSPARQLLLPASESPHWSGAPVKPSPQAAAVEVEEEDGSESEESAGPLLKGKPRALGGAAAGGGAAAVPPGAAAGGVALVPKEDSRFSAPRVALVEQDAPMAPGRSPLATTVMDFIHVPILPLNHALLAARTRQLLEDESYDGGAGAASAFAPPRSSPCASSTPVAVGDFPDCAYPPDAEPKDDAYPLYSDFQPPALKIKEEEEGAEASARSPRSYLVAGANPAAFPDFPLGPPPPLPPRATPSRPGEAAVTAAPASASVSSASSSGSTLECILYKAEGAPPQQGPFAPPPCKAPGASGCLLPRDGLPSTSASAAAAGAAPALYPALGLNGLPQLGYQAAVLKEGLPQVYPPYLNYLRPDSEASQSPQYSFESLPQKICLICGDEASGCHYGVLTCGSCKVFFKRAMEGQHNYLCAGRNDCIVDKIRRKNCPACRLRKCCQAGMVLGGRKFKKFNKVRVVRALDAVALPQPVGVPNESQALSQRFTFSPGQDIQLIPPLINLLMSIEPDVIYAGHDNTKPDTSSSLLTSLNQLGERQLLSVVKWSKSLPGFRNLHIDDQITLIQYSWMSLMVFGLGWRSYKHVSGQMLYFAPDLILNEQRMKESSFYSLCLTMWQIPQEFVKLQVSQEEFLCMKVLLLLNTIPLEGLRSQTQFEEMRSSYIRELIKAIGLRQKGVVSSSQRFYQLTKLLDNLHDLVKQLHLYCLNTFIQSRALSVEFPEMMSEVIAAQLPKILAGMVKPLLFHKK
Method: Both receptor cDNAs were cloned into baculovirus expression vectors and expressed in insect SF21 cells.
(§1) Stock solutions (32 mM) of compounds were prepared in dimethylsulfoxide (DMSO), and 50× solutions of test compounds were prepared from the 32 mM solution with a 50:50 mixture of DMSO/ethanol. The 50× solution was then diluted with binding buffer that contained 10 mM Tri-HCl, 1.5 mM EDTA, 10% glycerol, 1 mM DTT, 20 mM sodium molybdate, pH 7.5 @4° C. 1% DMSO/ethanol was present in the binding assay.
For PR binding assays, [^3H]Prog (˜36,000 dpm (˜0.8 nM)), PRA cytosol (˜40 μg protein), test compounds and binding buffer were mixed in a total volume of 200 μL and incubated at 4° C at overnight in a plate shaker. Specific binding was defined as the difference between binding of [^3H]Prog in the absence and in the presence of 3 μM unlabelled Prog.
(§2) After an overnight incubation, 50 μL of hydroxyapatite (25% weight/volume) slurry were added to each well and plates were incubated for 10 min at 0° C. in a plate shaker. Plates were suctioned with a Millipore vacuum manifold and each well was rinsed with 300 μL of ice-cold binding buffer. A 250 μL aliquot of Packard Microscint-20 was added to each well and the wells were shaken at room temperature for 20 minutes. The amount of radioactivity was determined with a Packard TopCount plate reader.
(§3) The Ki of test compounds was determined using the Cheng-Prusoff equation Ki=IC50/(1+[L*]/[KL]) where L* is the concentration of radioligand and KL is the dissociation constant of the radioligand determined from saturation analysis.

[2] = molecular target: T2, human glucocorticoid receptor-α [GRX] isoform (Homo sapiens, UniProt P04150); assay: Radioligand binding with human glucocorticoid receptor cytosol ([3H]-dexamethasone competition)
T2 construct: host or cells: insect SF21 cells (baculovirus)
T2 sequence (P04150 1-777): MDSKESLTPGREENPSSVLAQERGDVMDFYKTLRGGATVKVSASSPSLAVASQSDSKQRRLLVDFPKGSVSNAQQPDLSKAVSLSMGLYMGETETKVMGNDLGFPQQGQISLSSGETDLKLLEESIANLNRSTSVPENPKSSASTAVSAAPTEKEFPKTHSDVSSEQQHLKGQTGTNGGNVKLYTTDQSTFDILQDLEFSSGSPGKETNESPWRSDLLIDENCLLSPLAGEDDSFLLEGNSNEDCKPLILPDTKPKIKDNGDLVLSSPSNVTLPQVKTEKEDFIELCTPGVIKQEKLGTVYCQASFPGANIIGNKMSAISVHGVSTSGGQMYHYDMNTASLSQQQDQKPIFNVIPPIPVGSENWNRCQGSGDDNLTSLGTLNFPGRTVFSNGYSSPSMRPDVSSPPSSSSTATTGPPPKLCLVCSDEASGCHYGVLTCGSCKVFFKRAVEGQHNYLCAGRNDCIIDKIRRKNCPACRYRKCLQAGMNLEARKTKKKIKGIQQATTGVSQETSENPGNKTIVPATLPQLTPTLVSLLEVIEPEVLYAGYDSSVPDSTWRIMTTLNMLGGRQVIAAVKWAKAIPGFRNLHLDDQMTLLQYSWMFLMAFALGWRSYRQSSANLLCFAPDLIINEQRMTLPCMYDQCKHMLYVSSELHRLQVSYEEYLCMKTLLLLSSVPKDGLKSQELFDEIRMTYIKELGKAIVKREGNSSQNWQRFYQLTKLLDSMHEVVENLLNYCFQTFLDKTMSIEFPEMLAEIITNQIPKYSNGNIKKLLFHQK
From the text: Briefly, cytosol preparations of human glucocorticoid receptor-α [GRX] isoform and human progesterone receptor-A [PRA] isoform were obtained from Ligand Pharmaceuticals (San Diego, Calif.). Both receptor cDNAs were cloned into baculovirus expression vectors and expressed in insect SF21 cells. [^3H]-dexamethasone (Dex, specific activity 82-86 Ci/mmole) and [^3H]-progesterone (Prog, specific activity 97-102 Ci/mmol) were purchased from Amersham Life Sciences (Arlington Heights, Ill.). Glass fiber type C multiscreen MAFC NOB plates were from Millipore (Burlington, Mass.). Hydroxyapatide Bio-Gel HTP gel was from Bio-Rad Laboratories (Hercules, Calif.). Tris(hydroxymethyl)aminomethane (Tris), ethylenediaminetetraacetic acid (EDTA), glycerol, dithiothreitol (DTT) and sodium moylybdate were obtained from Sigma Chemicals (St. Louis, Mo.). Microscint-20 scintillation fluid was from Packard Instrument (Meriden, Conn.).
as §1
For GR binding assays, [^3H]-Dex (˜35,000 dpm (˜0.9 nM)), GRX cytosol (˜35 μg protein), test compounds and binding buffer were mixed in a total volume of 200 μL and incubated at 4° C. overnight in a plate shaker. Specific binding was defined as the difference between binding of [^3H]Dex in the absence and in the presence of 1 μM unlabelled Dex.
as §2, §3

[3] = PRA cytosol expressed in insect SF21 cells, [3H]Prog ~0.8 nM, 4° C. overnight, Ki by Cheng-Prusoff, KL ~4.5 nM, read-out: Ki (nM) PR
[4] = GRX cytosol expressed in insect SF21 cells, [3H]-Dex ~0.9 nM, 4° C. overnight, Ki by Cheng-Prusoff, KL ~[…], read-out: Ki (nM) GR

`CCOc1cccc2c1-c1ccc3c(c1C(c1ccccc1)O2)C(C)=CC(C)(C)N3` (stereo not drawn) [Example 9, 10-Ethoxy-2,5-dihydro-2,2,4-trimethyl-5-phenyl-1H-[1]benzopyrano[3,4-f]quinoline] was tested, and the Ki [1, 3] was no less than 10000 nM and the Ki [2, 4] was 60.5 nM.
With `CC(=O)Oc1cccc2c1-c1ccc3c(c1C(c1ccccc1)O2)C(C)=CC(C)(C)N3` (stereo not drawn) [Example 10, 2,5-Dihydro-2,2,4-trimethyl-5-phenyl-1H-[1]benzopyrano[3,4-f]quinoline-10-ol Acetate (Ester)] the Ki [1, 3] was 10900 nM and the Ki [2, 4] was 179 nM.
In the case of `COc1cccc2c1-c1ccc3c(c1C(c1cc(C)cc(Br)c1)O2)C(C)=CC(C)(C)N3` (stereo not drawn) [Example 11, 5-(3-Bromo-5-methylphenyl)-2,5-dihydro-10-methoxy-2,2,4-trimethyl-1H-[1]benzopyrano[3,4-f]quinoline], the Ki [1, 3] is reported as 288 nM and the Ki [2, 4] is reported as 4.4 nM.
Compound `COc1cccc2c1-c1ccc3c(c1C(c1cccc(OC(C)=O)c1)O2)C(C)=CC(C)(C)N3` (stereo not drawn) [Example 12, 3-(2,5-Dihydro-10-methoxy-2,2,4-trimethyl-1H-[1]benzopyrano[3,4-f]quinolin-5-yl)phenol, Acetate (Ester)] has a Ki [1, 3] of no less than 10000 nM and a Ki [2, 4] of 8.6 nM.
With `COc1cccc2c1-c1ccc3c(c1C(c1cccc(O)c1)O2)C(C)=CC(C)(C)N3` (stereo not drawn) [Example 13, 3-(2,5-Dihydro-10-methoxy-2,2,4-trimethyl-1H-[1]benzopyrano[3,4-f]quinolin-5-yl)phenol] the Ki [1, 3] was no less than 10000 nM and the Ki [2, 4] was 11.1 nM.
`COc1cccc2c1-c1ccc3c(c1C(c1cccc(OCSC)c1)O2)C(C)=CC(C)(C)N3` (stereo not drawn) [Example 14, 2,5-Dihydro-10-methoxy-2,2,4-trimethyl-5-[[3-(methylthio)methoxy]phenyl]-1H-[1]benzopyrano[3,4-f]quinoline] was tested, and the Ki [1, 3] was no less than 10000 nM and the Ki [2, 4] was 5.2 nM.
`COc1cccc2c1-c1ccc3c(c1C(c1cccc(OC(=O)N(C)C)c1)O2)C(C)=CC(C)(C)N3` (stereo not drawn) [Example 15, [3-(2,5-Dihydro-10-methoxy-2,2,4-trimethyl-1H-[1]benzopyrano[3,4-f]quinolin-5-yl)phenyl]dimethylcarbamate] was tested, and the Ki ([1]; Ki (nM) PR) was no less than 10000 nM and the Ki ([2]; Ki (nM) GR) was 2.5 nM.
`COc1cccc2c1-c1ccc3c(c1C(c1cc(C)cc(-c4ccco4)c1)O2)C(C)=CC(C)(C)N3` (stereo not drawn) [Example 16, 5-[3-(2-Furanyl)-5-methylphenyl]-2,5-dihydro-10-methoxy-2,2,4-trimethyl-1H-[1]benzopyrano[3,4-f]quinoline] showed a Ki [1, 3] of no less than 10000 nM and a Ki [2, 4] of 8 nM.
`COc1cccc2c1-c1ccc3c(c1C(c1cc(C)cc(N4CCOCC4)c1)O2)C(C)=CC(C)(C)N3` (stereo not drawn) [Example 17, 2,5-Dihydro-10-methoxy-2,2,4-trimethyl-5-[3-methyl-5-(1-morpholinyl)phenyl]-1H-[1]benzopyrano[3,4-f]quinoline] was tested, and the Ki [1, 3] was no less than 10000 nM and the Ki [2, 4] was 39 nM.
In the case of `COc1cccc2c1-c1ccc3c(c1C(c1cccc(C(F)(F)F)c1)O2)C(C)=CC(C)(C)N3` (stereo not drawn) [Example 21, 2,5-Dihydro-10-methoxy-2,2,4-trimethyl-5-[3-(trifluoromethyl)phenyl]-1H-[1]benzopyrano[3,4-f]quinoline], the Ki [1, 3] is reported as 4020 nM and the Ki [2, 4] is reported as 10.7 nM.
For `COc1ccc(C2Oc3cccc(OC)c3-c3ccc4c(c32)C(C)=CC(C)(C)N4)cc1` (stereo not drawn) [Example 22, 2,5-Dihydro-10-methoxy-5-(4-methoxyphenyl)-2,2,4-trimethyl-1H-[1]benzopyrano[3,4-f]quinoline], the Ki [1, 3] was no less than 10000 nM and the Ki [2, 4] was 6.5 nM.
Work on `COc1cccc2c1-c1ccc3c(c1C(c1cccc(Cl)c1)O2)C(C)=CC(C)(C)N3` (stereo not drawn) [Example 23, 5-(3-Chlorophenyl)-2,5-dihydro-10-methoxy-2,2,4-trimethyl-1H-[1]benzopyrano[3,4-f]quinoline] yielded a Ki [1, 3] of 6150 nM and a Ki [2, 4] of 8.2 nM.
`COc1cccc2c1-c1ccc3c(c1C(c1cccc(C)c1)O2)C(C)=CC(C)(C)N3` (stereo not drawn) [Example 24, 2,5-Dihydro-10-methoxy-2,2,4-trimethyl-5-(3-methylphenyl)-1H-[1]benzopyrano[3,4-f]quinoline] gave a Ki [1, 3] of 14800 nM and a Ki [2, 4] of 3.5 nM.
`COc1cccc2c1-c1ccc3c(c1C(c1cc(C)cc(C)c1)O2)C(C)=CC(C)(C)N3` (stereo not drawn) [Example 27, 5-(3,5-Dimethylphenyl)-2,5-dihydro-10-methoxy-2,2,4-trimethyl-1H-[1]benzopyrano[3,4-f]quinoline] showed a Ki [1, 3] of 3580 nM and a Ki ([2]; Ki (nM) GR) of 5.2 nM.
`COc1cccc2c1-c1ccc3c(c1C(c1ccc(Cl)cc1)O2)C(C)=CC(C)(C)N3` (stereo not drawn) [Example 28, 5-(4-Chlorophenyl)-2,5-dihydro-10-methoxy-2,2,4-trimethyl-1H-[1]benzopyrano[3,4-f]quinoline] gave a Ki [1, 3] of 3270 nM and a Ki [2, 4] of 4.7 nM.
`COc1cccc2c1-c1ccc3c(c1C(c1ccc(C)c(C)c1)O2)C(C)=CC(C)(C)N3` (stereo not drawn) [Example 29, 5-(3,4-Dimethylphenyl)-2,5-dihydro-10-methoxy-2,2,4-trimethy-1H-[1]benzopyrano[3,4-f]quinoline] showed a Ki [1, 3] of 7760 nM and a Ki [2, 4] of 7.7 nM.
`COc1cccc2c1-c1ccc3c(c1C(c1ccc(F)cc1)O2)C(C)=CC(C)(C)N3` (stereo not drawn) [Example 30, 5-(4-Fluorophenyl)-2,5-dihydro-10-methoxy-2,2,4-trimethyl-1H-[1]benzopyrano[3,4-f]quinoline] gave a Ki [1, 3] of 7920 nM and a Ki [2, 4] of 13 nM.
Compound `COc1cccc2c1-c1ccc3c(c1C(c1cc(C(F)(F)F)cc(C(F)(F)F)c1)O2)C(C)=CC(C)(C)N3` (stereo not drawn) [Example 31, 5-[3,5-bis(Trifluoromethyl)phenyl]-2,5-dihydro-10-methoxy-2,2,4-trimethyl-1H-[1]benzopyrano[3,4-f]quinoline] has a Ki [1, 3] of no less than 10000 nM and a Ki [2, 4] of 12.2 nM.
`COc1cccc2c1-c1ccc3c(c1C(c1cc(F)cc(F)c1)O2)C(C)=CC(C)(C)N3` (stereo not drawn) [Example 34, 5-(3,5-Difluorophenyl)-2,5-dihydro-10-methoxy-2,2,4-trimethyl-1H-[1]benzopyrano[3,4-f]quinoline] gave a Ki [1, 3] of 4710 nM and a Ki [2, 4] of 4 nM.
Work on `COc1cccc2c1-c1ccc3c(c1C(N(C)c1ccccc1)O2)C(C)=CC(C)(C)N3` (stereo not drawn) [Example 35, 2,5-Dihydro-10-methoxy-2,2,4,N-tetramethyl-N-phenyl-1H-[1]benzopyrano[3,4-f]quinolin-5-amine] yielded a Ki [1, 3] of no less than 10000 nM and a Ki [2, 4] of 260 nM.
Work on `COc1cccc2c1-c1ccc3c(c1CO2)C(C)=CC(C)(C)N3` [Example 38, 2,5-Dihydro-10-methoxy-2,2,4-trimethyl-1H-[1]benzopyrano[3,4-f]quinoline] yielded a Ki [1, 3] of no less than 10000 nM and a Ki [2, 4] of 207 nM.
`COc1cccc2c1-c1ccc3c(c1C(c1ccc(N(C)C)cc1)O2)C(C)=CC(C)(C)N3` (stereo not drawn) [Example 39, 4-(2,5-Dihydro-10-methoxy-2,2,4-trimethyl-1H-[1]benzopyrano[3,4-f]quinolin-5-yl)-N,N-dimethylbenzenamine] gave a Ki [1, 3] of no less than 10000 nM and a Ki [2, 4] of 31 nM.
Compound `COc1ccc(C2Oc3cccc(OC)c3-c3ccc4c(c32)C(C)=CC(C)(C)N4)s1` (stereo not drawn) [Example 40, 2,5-Dihydro-10-methoxy-2,2,4-trimethyl-5-(5-methoxy-2-thienyl)1H-[1]benzopyrano[3,4-f]quinoline] has a Ki [1, 3] of 18100 nM and a Ki [2, 4] of 18 nM.
`CCCc1ccc(C2Oc3cccc(OC)c3-c3ccc4c(c32)C(C)=CC(C)(C)N4)s1` (stereo not drawn) [Example 41, 2,5-Dihydro-10-methoxy-2,2,4-trimethyl-5-(5-propyl-2-thienyl)-1H-[1]benzopyrano[3,4-f]quinoline] was tested, and the Ki [1, 3] was 3300 nM and the Ki [2, 4] was 9.5 nM.
